Among the data in patent US4888333A, “Allymercaptoacetylsydnonimines, processes for their preparation, and their use” (Cassella Aktiengessellschaft, priority 1987, dated 1989) are IC50 values, retold here.

The structures appear in SMILES notation. pIC50: −log10 of the molar value.

For the first experiment, the system named is pulmonary artery of the guinea pig. In words: Relaxant effect: inhibition of CaCl2-triggered contraction of potassium-depolarized spiral strips of the pulmonary artery. Particulars: Cavia porcellus, calcium-free Tyrode's solution, 40 mmol/l potassium, 0.5 mmol/l CaCl2, mean of 4 to 6 vessel strips, read-out: IC50 (concentration of the test substance which inhibits contraction by 50%). In kind it is cell-based. The text has this:
The pharmacological action of the compounds of the formula I was established using a modification of the method of Godfraind and Kaba (Arch. Int. Pharmacodyn. Ther. 196, (Suppl) 35 to 49, 1972) and of Schumann et al. (Naunyn-Schmiedeberg's Arch. Pharmacol. 289, 409 to 481, 1975). This entails spiral strips of the pulmonary artery of the guinea pig being equilibrated in calcium-free Tyrode's solution and then depolarized with 40 mmol/l of potassium. Addition of 0.5 mmol/l of CaCl2 then triggers a contraction. The relaxant effect of the test substance is established by cumulative addition of concentrations in 1/2 log 10 steps. The concentration of the test substance which inhibits contraction by 50% (=IC50, mol/l) is established from the concentration/effect graph (abscissa: -log mol/l test substance, ordinate: % inhibition of the maximum contraction, mean of 4 to 6 vessel strips).
Take `C=CCSCC(=O)[N-]c1c[n+](N2CCOCC2)no1` [Example 1, 3-Morpholino-N-allylmercaptoacetylsydononimine]: the pIC50 was 4.70. On the same count and under the same terms, the result for `C=CCSCC(=O)[N-]c1c[n+](N2CCN(C(=O)OCC)CC2)no1` [Example 2, 3-(4-Ethoxycarbonyl-1-piperazinyl)-N-allylmercaptoacetylsydnonimine] reads 4.10; that for `C=CCSCC(=O)[N-]c1c[n+](N2CCN(S(C)(=O)=O)CC2)no1` [Example 3, 3-(4-Methylsulphonyl-1-piperazinyl)-N-allylmercaptoacetylsydnonimine], 4.52; that for `C=CCSCC(=O)[N-]c1c[n+](N2CCN(S(=O)(=O)N(C)C)CC2)no1` [Example 4, 3-(4-Dimethylaminosulphonyl-1-piperazinyl)-N-allylmercaptoacetylsydnonimine], 4.52. On the same count and under the same terms, as for `C=CCSCC(=O)[N-]c1c[n+](N2CCS(=O)(=O)CC2)no1` [Example 5, 3-(1,1-Dioxotetrahydro-1,4-thiazin-4-yl)-N-allylmercaptoacetylsydnonimine], the figure is 4.52; as for `C=CCSCC(=O)[N-]c1c[n+](N(C)C2CCS(=O)(=O)C2)no1` (stereo not shown) [Example 6, 3-(N-Methyl-N-1,1-dioxotetrahydro-3-thienylamino)-N-allylmercaptoacetylsydnonimine], 5.00. Same read-out and setting: as for `C=CCSCC(=O)[N-]c1c[n+](N(C)C)no1` [Example 7, 3-Dimethylamino-N-allylmercaptoacetylsydnonimine], the figure is 4.52; as for `C=CCSCC(=O)[N-]c1c[n+](N2CCCCC2)no1` [Example 8, 3-Piperidino-N-allylmercaptoacetylsydnonimine], 4.70. Regarding `CCOC(=O)[N-]c1cn(N2CCOCC2)n[o+]1` [Molsidomine, N-ethoxycarbonyl-3-morpholinosydnonimine, reference compound], the pIC50 was 4.00.

The experiment is the same for the next values; noted with them: calcium-free Tyrode's solution, 40 mmol/l potassium, 0.5 mmol/l CaCl2, mean of 4 to 6 vessel strips, read-out: IC50 (concentration of the test substance which inhibits contraction by 50%).
On to `CCOC(=O)[N-]c1cn(N2CCOCC2)n[o+]1` [Molsidomine, N-ethoxycarbonyl-3-morpholinosydnonimine, reference compound], for which the pIC50 was less than 4.00.
